Where “and” joins values, the source holds several entries; their conditions need not be identical. Equal entries are not always repeated.
What was measured:
[1] = system: nontransfected Expi293 cells (Mock); test: Nonspecific binding to crude membrane of nontransfected cells (Mock); parameters: species or system human; settings: 30 nM canagliflozin; Mock membrane
Experimental: To examine the inhibition of binding to the crude membrane, mammalian Expi293 cells were co-transfected with the hMAP17 and hSGLT2 plasmids, as described. The cells were collected and disrupted by sonication in a hypotonic buffer (50 mM HEPES–NaOH (pH 7.5), 10 mM KCl and protease inhibitor cocktail) or Na^+-free hypotonic buffer (50 mM Tris–HCl (pH 7.5), 10 mM KCl and protease inhibitor cocktail). The cell debris were removed by centrifugation (2,000g, 5 min, 4 °C). The membrane fraction was collected by ultracentrifugation (112,000g, 30 min, 4 °C) and stored at −80 °C before use. The crude membrane (250 μg per sample) was incubated with SGLT2 inhibitor in an assay buffer (100 mM NaCl and 10 mM HEPES/Tris, pH 7.4) or Na^+-free assay buffer (100 mM choline chloride and 10 mM HEPES/Tris, pH 7.4) at room temperature for 2 h. Reactions were terminated by filtration through a GF/C filter plate (Corning) presoaked in assay buffer containing 0.1% bovine serum albumin. The sample in the filter plate was washed three times with the assay buffer and eluted with acetonitrile: water (80:20, v/v). The extract solution from the filter plate was diluted with water containing candesartan as an internal standard, and the SGLT2 inhibitor concentration was quantified via LC–MS/MS.
Nonspecific binding was measured using the crude membrane of nontransfected Expi293 cells. Specific binding was calculated by subtracting nonspecific binding from the binding of hSGLT2-expressing cells. Specific binding was normalized to hSGLT2 protein expression levels, measured via FSEC. The equilibrium dissociation constant (Kd) and maximum number of binding sites (Bmax) were calculated via nonlinear regression in GraphPad Prism 8.4.3. The specific binding of the hSGLT2 mutants was normalized to the Bmax of WT hSGLT2.
The concentrations of the extract solution from the filter plate and of the cell lysate were quantified using a tandem mass spectrometry QTRAP6500 System (SCIEX) coupled with an ACQUITY UPLC system (Waters) using the internal standard method. Mobile phases A and B used 10 mM of ammonium bicarbonate and acetonitrile, respectively.

hSGLT2 D201A = target: T1, hSGLT2 D201A (Homo sapiens, UniProt P31639, D201A); test: α-MG uptake in HEK293 cells, D201A mutant; assay type: cell-based; parameters: expressed in transfected cells
T1 sequence (P31639 1-672 D201A): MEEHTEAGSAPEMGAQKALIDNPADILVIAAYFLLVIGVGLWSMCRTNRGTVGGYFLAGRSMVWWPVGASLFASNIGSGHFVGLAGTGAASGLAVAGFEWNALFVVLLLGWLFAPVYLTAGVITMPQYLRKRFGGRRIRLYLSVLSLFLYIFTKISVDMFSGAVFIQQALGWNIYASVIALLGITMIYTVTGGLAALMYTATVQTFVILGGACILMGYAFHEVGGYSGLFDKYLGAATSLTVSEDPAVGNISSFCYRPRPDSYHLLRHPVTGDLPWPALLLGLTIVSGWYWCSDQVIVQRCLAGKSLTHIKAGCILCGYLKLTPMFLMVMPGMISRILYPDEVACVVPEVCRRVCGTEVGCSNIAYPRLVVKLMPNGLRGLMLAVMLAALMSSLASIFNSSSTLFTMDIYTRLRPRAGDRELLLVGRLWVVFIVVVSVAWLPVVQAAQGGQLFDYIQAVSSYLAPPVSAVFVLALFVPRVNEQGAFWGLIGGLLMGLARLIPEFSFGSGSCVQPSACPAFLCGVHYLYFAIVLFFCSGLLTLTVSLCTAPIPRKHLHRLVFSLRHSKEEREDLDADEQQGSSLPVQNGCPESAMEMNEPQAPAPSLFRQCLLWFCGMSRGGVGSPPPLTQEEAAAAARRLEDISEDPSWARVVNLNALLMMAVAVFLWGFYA
T1 sequence (Q13113 1-114 partner): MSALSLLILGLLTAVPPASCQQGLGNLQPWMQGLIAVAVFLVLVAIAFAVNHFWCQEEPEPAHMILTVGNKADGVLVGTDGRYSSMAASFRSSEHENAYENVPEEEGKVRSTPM
Excerpt: hSGLT2 complementary DNA and human MAP17 cDNA were synthesized and codon-optimized for expression in human cell lines. Both cDNAs were cloned into the pcDNA3.4 vector. The hSGLT2 sequence was fused with an N-terminal signal sequence from human trypsinogen 1, a His10 tag, and sfGFP, followed by a human rhinovirus 3C protease (HRV3C protease) recognition site. Point mutations were introduced into this construct using site-directed mutagenesis. These plasmids were utilized for all experimental procedures conducted in this study. […]
Cell lysates were deproteinized by adding acetonitrile containing candesartan as the internal standard. The α-MG concentration was quantified via liquid chromatography–tandem mass spectrometry (LC–MS/MS) using the internal standard method.
Cellular protein content was determined using a bicinchoninic acid protein assay kit (Thermo Fisher Scientific). The uptake of α-MG was expressed as the ratio of concentration in the cells (in pmol per mg protein) to concentration in the medium (in pmol μl^−1); this is known as the cell-to-medium ratio (in μl per mg protein).
In the inhibition study, the cell-to-medium ratio of cells transfected with the empty vector was used as the background. The specific α-MG uptake was calculated by subtracting this background from the total cell-to-medium ratio and normalized to the uptake achieved without the inhibitor. […]

Row | Compound | Canagliflozin binding (% of hSGLT2) [1] | uptake of α-MG (in words) (hSGLT2 D201A; D201A mutant) | α-MG uptake (hSGLT2 D201A; Fig. 3h, D201A)
1 | Cc1ccc([C@@H]2O[C@H](CO)[C@@H](O)[C@H](O)[C@H]2O)cc1Cc1ccc(-c2ccc(F)cc2)s1 [Canagliflozin] | 2.562 % of hSGLT2 and 2.489 % of hSGLT2 and 1.993 % of hSGLT2 | – | –
2 | CO[C@H]1O[C@H](CO)[C@@H](O)[C@H](O)[C@H]1O [α-MG, α-methyl-D-glucopyranoside] | – | No clear uptake | 6.25 μL/mg-protein and 10.67 μL/mg-protein and 6.52 μL/mg-protein
